Data from US20040044226A1, “Estrogen receptor modulators” (priority 2003, published 2004).

System: MCF-7 cells
Experiment: MCF-7 Estrogen Dependent Proliferation Assay
Type: cell-based
Conditions: Homo sapiens, MCF7, estradiol added to Estrogen Depleted Media (EDM), read-out: EC50 of stimulation of growth of MCF-7 cells
From the text: MCF-7 Estrogen Dependent Proliferation Assay MCF-7 cells (ATCC #HTUB-22) are human mammary gland adenocarcinoma cells that require estrogen for growth. The growth media (GM) for the MCF-7 cells is Minimum Essential Media (without phenol red) supplemented with fetal bovine serum(FBS) to 10%. The FBS serves as the sole source of estrogen and this GM supports the full growth of the cells and is used for the routine growth of the cell cultures. When MCF-7 cells are placed in a media in which 10% Charcoal-Dextran treated fetal bovine serum (CD-FBS) is substituted for FBS, the cells will cease to divide but will remain viable. […] The addition of estradiol to EDM stimulates the growth of the MCF-7 cells in a dose dependent manner with an EC50 of […]. Growing MCF-7 cells are washed several times with EDM and the cultures then maintained in EDM for a minimum of 6 days in order to deplete the cells of endogenous estrogen. On day 0 (at the start of the assay), these estrogen depleted cells are plated into 96-well cell culture plates at a density of 1000 cells/well in EDM in a volume of 180 ul/well. […] At this point, the culture supernatants are aspirated, the cells washed 2× with PBS, the wash solution aspirated and the protein content of each well determined. Each drug dilution is evaluated on a minimum of 5 wells and the range of dilution of the test compounds in the assay is 0.001 nM to 1000 nM. […]

EC50: 2 pM
Structure (SMILES): C[C@]12CC[C@@H]3c4ccc(O)cc4CC[C@H]3[C@@H]1CC[C@@H]2O [estradiol]
